Assay [1] deals with T1, I50V/A71V mutant protease (Human immunodeficiency virus type 1 group M subtype B, UniProt P12497, A559V/I538V/Q495K).
T1 construct: the gene encoding the desired HIV-1 protease was subcloned into the heat-inducible pXC35 expression vector; made in house
The assay can be described thus: Ki assay (FRET enzyme inhibition), I50V/A71V protease. Type of assay: biochemical, HIV-1. Conditions: I50V/A71V drug-resistant protease variant. Here is the method:
(§1) The highly mutated, resistant, protease variant genes were purchased on a pET11a plasmid with codon optimization for protein expression in Escherichia coli (Genewiz). A Q7K mutation was included to prevent autoproteolysis ([Rosé et al., 1993]). The expression, isolation, and purification of WT and mutant HIV-1 proteases used for enzymatic assays were carried out as previously described ([Henes et al., 2019]; [King et al., 2002]; [Özen et al., 2014]). Briefly, the gene encoding the desired HIV-1 protease was subcloned into the heat-inducible pXC35 expression vector (ATCC) and transformed into E. coli TAP-106 cells. Cells grown in 6 l of Terrific Broth were lysed with a cell disruptor twice, and the protein was purified from inclusion bodies ([Hui et al., 1993]). Inclusion bodies, isolated as a pellet after centrifugation, were dissolved in 50% acetic acid followed by another round of centrifugation at 19,000 rpm for 30 min to remove insoluble impurities. Size-exclusion chromatography was carried out on a 2.1 l Sephadex G-75 Superfine (Sigma Chemical) column equilibrated with 50% acetic acid to separate high molecular weight proteins from the desired protease. Pure fractions of HIV-1 protease were refolded using a tenfold dilution of refolding buffer (0.05 M sodium acetate at pH 5.5, 5% ethylene glycol, 10% glycerol, and 5 µM DTT). Folded protein was concentrated to 0.5–3 mg/ml and stored. The stored protease was used in KM and Ki assays.
(§2) Enzyme inhibition constants (Ki values) were determined as previously described ([Henes et al., 2019]; [Lockbaum et al., 2019]; [Matayoshi et al., 1990]; [Windsor and Raines, 2015]). Briefly, in a 96-well plate, inhibitors were serially diluted down from […] depending on protease resistance. All samples were incubated with 5 nM protein for 1 hr. A 10-amino acid substrate containing an optimized protease cleavage site ([Windsor and Raines, 2015]), purchased from Bachem, with an EDANS/DABCYL FRET pair was dissolved in 4% DMSO at 120 µM. Using a PerkinElmer Envision plate reader, 5 µl of the 120 µM substrate were added to the 96-well plate to a final concentration of 10 µM. […] Data was analyzed with Prism7.

The target of a further assay is T2, I84V mutant protease (Human immunodeficiency virus type 1 group M subtype B, UniProt P12497, I572V/Q495K).
T2 construct: the gene encoding the desired HIV-1 protease was subcloned into the heat-inducible pXC35 expression vector; made in house
The assay can be described thus: Ki assay (FRET enzyme inhibition), I84V protease. Type of assay: biochemical, HIV-1. Conditions: I84V drug-resistant protease variant. As for the experimental part: as §1, §2

Assay [2] relates to virus pool selected to 5000 nM inhibitor. The assay can be described thus: TZM infection assay, inhibitor-selected resistant virus pools. Type of assay: cell-based, HIV-1. Conditions: Human immunodeficiency virus 1, read-out: EC50 Viral culture (5000 nM); final virus pool selected with the same inhibitor to 5000 nM; highest level recorded 100 µM. As for the experimental part: In addition to the sequence of the terminally selected virus, we validated that selection occurred over the entire course of the selection protocol. […] In comparing the number of mutations present in cultures using the I84V versus the I50V pathway, we noted that on average there were more mutations in the I50V viruses at the intermediate drug concentration compared to the I84V viruses (100 nM, p=0.03), and this trend continued at the higher drug concentration.
An aliquot of 3 × 10^6 CEMx174 cells was incubated at 37°C for 2–3 hr with 250 µl of a virus stock generated from the HIV-1 infectious molecular clone pNL4-3. The culture volume was then brought to 10 ml with RPMI medium. […] After 48 hr and every 48 hr after, the cells were pelleted by centrifugation and 10 ml of fresh medium and inhibitors were added. When the culture had undergone extensive cytopathic effect (CPE) indicative of viral replication, the supernatant medium and the cells were harvested separately and stored at –80°C. The virus-containing supernatant was used to start the next round of infection, and after several rounds at the initial concentration, the inhibitor concentration was increased 1.5-fold at each subsequent round of virus passage.
PI dilutions were prepared by taking 10 µM stocked and performing a fivefold serial dilution using RPMI media (final drug concentration is […]). One dilution of drug was added to each well of a 24-well plate and repeated so each virus would have a full set of dilutions. Viruses for the assay were made by seeding 3 × 10^6 CEM cells in a 24-well plate and incubating with 250 µl of virus at 37°C for 2–3 hr before bringing the culture to 10 ml with RPMI media. After 48 hr, the medium was changed and repeated every 48 hr after until the culture had undergone CPE. Infected CEM cells were collected and diluted so that 1 ml of cells could be plated in each well containing a unique drug dilution. Then 24 hr later the virus supernatant was collected from each well followed by filtering through a […] then placed in –80°C. Viruses were thawed and added to 96-well plates in triplicate. TZM-bl cells were collected and diluted to a concentration of 2 × 10^5 cells/ml, 100 µl were added on top of the pre-plated viruses. Plates were kept in 37°C, 5% CO2 in an incubator for 48 hr. After 48 hr, the cells in the plates were lysed by removing the medium, washing two times with 100 µl PBS, and then lysed with 1× lysis buffer (made from 5× Promega Firefly Lysis Buffer). Plates were frozen for at least 24 hr and then thawed for 2 hr before analyzing with Promega Firefly Luciferase Kit on a luminometer. Data was analyzed with Prism 7 to fit sigmoidal dose–response curves.

In a further assay the target is T3, wild-type NL4-3 protease (Human immunodeficiency virus type 1 group M subtype B, UniProt P12497, Q495K).
T3 construct: the gene encoding the desired HIV-1 protease was subcloned into the heat-inducible pXC35 expression vector; made in house
The assay can be described thus: Ki assay (FRET enzyme inhibition), wild-type protease. Conditions: limit of detection 5 pM, read-out: Ki WT. The class given is biochemical, HIV-1. Here is the method: as §1, §2

SMILES strings stand for the structures.

What is called Ki is the dissociation constant of the complex between target and ligand, obtained from inhibition or displacement. For orientation: EC50 means the midpoint of the concentration-response curve. Consider `CCC(CC)CN(C[C@@H](O)[C@H](Cc1ccccc1)NC(=O)O[C@H]1CO[C@H]2OCC[C@H]21)S(=O)(=O)c1ccc2c(c1)OCO2` [UMASS-9], for which the Ki was 0.0423 ± 0.0026 nM in assay [1], 0.0076 ± 0.0016 nM at I84V mutant protease and under 0.005 nM at wild-type NL4-3 protease. Further, the EC50 in assay [2] was over 100000 nM.
As for `CCC(CC)CN(C[C@@H](O)[C@H](Cc1ccccc1)NC(=O)O[C@H]1CO[C@H]2OCC[C@H]21)S(=O)(=O)c1ccc(OC)cc1` [UMASS-7], the inhibitory constant (Ki) was 0.0182 ± 0.003 nM in assay [1], 0.0121 ± 0.0045 nM at I84V mutant protease and under 0.005 nM at wild-type NL4-3 protease.
Take `CC[C@H](C)CN(C[C@@H](O)[C@H](Cc1ccccc1)NC(=O)O[C@H]1CO[C@H]2OCC[C@H]21)S(=O)(=O)c1ccc2ncsc2c1` [UMASS-5]: the Ki in assay [1] was 0.0078 ± 0.0009 nM; at I84V mutant protease, 0.007 ± 0.0017 nM; on wild-type NL4-3 protease, under 0.005 nM. In assay [2], the concentration giving a half-maximal response (EC50) is over 100000 nM.
Consider `CC[C@H](C)CN(C[C@@H](O)[C@H](Cc1ccccc1)NC(=O)O[C@H]1CO[C@H]2OCC[C@H]21)S(=O)(=O)c1ccc(CO)cc1` [UMASS-3], for which the inhibitory constant (Ki) in assay [1] was 0.0799 ± 0.0059 nM; at I84V mutant protease it was 0.0099 ± 0.0027 nM; on wild-type NL4-3 protease, under 0.005 nM. Also, in assay [2], the EC50 was determined as 14800 nM.
Take `CC[C@H](C)CN(C[C@@H](O)[C@H](Cc1ccccc1)NC(=O)O[C@H]1CO[C@H]2OCC[C@H]21)S(=O)(=O)c1ccc2c(c1)OCO2` [UMASS-4]: the Ki in assay [1] was 0.0329 ± 0.003 nM; on I84V mutant protease, 0.0105 ± 0.0018 nM; at wild-type NL4-3 protease, under 0.005 nM. Also, the EC50 in assay [2] was found to be 13700 nM.
